pIC50: −log10 of the molar value. Where a name gives a salt, the structure may show the parent alone. Read-outs that look alike come from different tables or passages of the source.
Experiments:
[1] = target: T1, HCV polymerase 1A (Δ21 NS5B, H77) (Hepatitis C virus genotype 1a, UniProt P27958); assay: biochemical
T1 construct: 20 to 50 nM Δ21 NS5B
Experimental: (§1) HCV Polymerase Inhibition Assay
The reaction was initiated by the addition of 20 μM CTP, 20 μM ATP, 1 μM ^3H-UTP (10 mCi/umol), 5 nM template RNA and 0.1 U/μl RNase inhibitor (RNasin, Promega), and allowed to proceed for 2 to 4 h at room temperature. Reaction volume was 50 μl. The reaction was terminated by the addition of 1 volume of 4 mM spermine in 10 mM Tris-Cl pH 8.0, 1 mM EDTA. After incubation for at least 15 min at room temperature, the precipitated RNA was captured by filtering through a GF/B filter (Millipore) in a 96 well format. The filter plate was washed three times with 200 μl each of 2 mM spermine, 10 mM Tris-Cl pH 8.0, 1 mM EDTA, and 2 times with ethanol. After air-drying, 30 μl of Microscint 20 scintillation cocktail (Packard) was added to each well, and the retained cpm were determined by scintillation counting. […] Retained cpm were plotted vs. inhibitor concentration and fit to equation 1 using non-linear regression (ref. 1) to obtain the IC50 values: Retained cpm=A[sqrt{(IC50+It−Et)^2+4*IC50*Et}−(IC50+It−Et)]
Ref. Morrison, J. F. and S. R. Stone. […] Approaches to the study and analysis of the inhibition of enzymes by slow- and tight-binding inhibitors. Comments Mol. Cell. Biophys.
The sequence of the template RNA used was: 5′-[…]

[2] = target: T2, HCV polymerase 1B (Δ21 NS5B, BK) (Hepatitis C virus genotype 1b, UniProt P26663); assay: biochemical
T2 construct: 20 to 50 nM Δ21 NS5B
T2 sequence (P26663 2420-2989, stated change not applied): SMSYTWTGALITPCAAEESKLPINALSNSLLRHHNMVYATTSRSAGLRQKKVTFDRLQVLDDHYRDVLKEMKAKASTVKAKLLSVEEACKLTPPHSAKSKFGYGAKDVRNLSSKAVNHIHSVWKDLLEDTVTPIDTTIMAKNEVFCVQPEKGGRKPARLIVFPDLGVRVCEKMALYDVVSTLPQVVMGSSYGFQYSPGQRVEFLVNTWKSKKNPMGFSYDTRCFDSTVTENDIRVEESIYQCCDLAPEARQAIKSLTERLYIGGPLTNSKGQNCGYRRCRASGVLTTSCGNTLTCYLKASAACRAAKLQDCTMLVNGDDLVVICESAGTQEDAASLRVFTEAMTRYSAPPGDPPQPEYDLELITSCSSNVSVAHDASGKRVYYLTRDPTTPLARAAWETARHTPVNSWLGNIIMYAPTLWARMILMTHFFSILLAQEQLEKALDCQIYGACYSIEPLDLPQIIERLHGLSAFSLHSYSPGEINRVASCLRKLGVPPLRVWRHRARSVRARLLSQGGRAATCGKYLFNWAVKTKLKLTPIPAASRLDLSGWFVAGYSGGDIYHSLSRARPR
Experimental: as §1
Either two-fold serial dilutions (fractional inhibition assay) or a narrower range of dilutions spanning the IC50 of the inhibitor (tight binding assay) of the inhibitors were incubated with 20 mM Tris-Cl pH 7.4, 2 mM MnCl2, 1 mM dithiothreitol, 1 mM ethylene diamine tetraacetic acid (EDTA), 60 to 125 μM GTP and 20 to 50 nM Δ21 NS5B (HCV Strain 1B (BK, Genbank accession number M58335, or H77, Genbank accession number AF011751)) for 15 min at room temperature. The reaction was initiated by the addition of 20 μM CTP, 20 μM ATP, 1 μM ^3H-UTP (10 mCi/umol), 5 nM template RNA and 0.1 U/μl RNase inhibitor (RNasin, Promega), and allowed to proceed for 2 to 4 h at room temperature. Reaction volume was 50 μl. The reaction was terminated by the addition of 1 volume of 4 mM spermine in 10 mM Tris-Cl pH 8.0, 1 mM EDTA. After incubation for at least 15 min at room temperature, the precipitated RNA was captured by filtering through a GF/B filter (Millipore) in a 96 well format. The filter plate was washed three times with 200 μl each of 2 mM spermine, 10 mM Tris-Cl pH 8.0, 1 mM EDTA, and 2 times with ethanol. After air-drying, 30 μl of Microscint 20 scintillation cocktail (Packard) was added to each well, and the retained cpm were determined by scintillation counting. […] Retained cpm were plotted vs. inhibitor concentration and fit to equation 1 using non-linear regression (ref. 1) to obtain the IC50 values: Retained cpm=A[sqrt{(IC50+It−Et)^2+4*IC50*Et}−(IC50+It−Et)]
Ref. Morrison, J. F. and S. R. Stone. 1985. Approaches to the study and analysis of the inhibition of enzymes by slow- and tight-binding inhibitors. Comments Mol. Cell. Biophys. 2: 347-368.
The sequence of the template RNA used was: 5′-[…] […] […] […] […] […] […] […] […] […] […] […] […] […] […] […] […]-3′ (SEQ ID NO: 1)

T1 sequence (P27958 2421-2990, stated change not applied): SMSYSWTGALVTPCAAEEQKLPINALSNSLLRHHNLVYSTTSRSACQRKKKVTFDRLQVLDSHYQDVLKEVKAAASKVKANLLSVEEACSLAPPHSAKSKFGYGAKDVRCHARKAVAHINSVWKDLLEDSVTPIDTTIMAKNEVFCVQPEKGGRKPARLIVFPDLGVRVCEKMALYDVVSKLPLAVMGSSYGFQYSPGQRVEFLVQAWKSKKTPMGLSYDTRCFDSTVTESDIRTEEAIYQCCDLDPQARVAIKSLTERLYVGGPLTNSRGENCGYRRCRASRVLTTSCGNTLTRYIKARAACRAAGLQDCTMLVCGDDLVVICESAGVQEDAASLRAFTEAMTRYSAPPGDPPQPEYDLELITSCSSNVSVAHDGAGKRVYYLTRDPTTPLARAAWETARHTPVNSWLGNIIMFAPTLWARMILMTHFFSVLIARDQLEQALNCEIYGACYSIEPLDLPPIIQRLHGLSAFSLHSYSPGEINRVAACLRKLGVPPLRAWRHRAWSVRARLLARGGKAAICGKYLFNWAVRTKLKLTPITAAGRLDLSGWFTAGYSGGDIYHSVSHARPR

For `CCOC(=O)CC(=O)c1ccc(NC(=O)c2cc(N3CCC(=O)NC3=O)cc(C(C)(C)C)c2OC)cc1` [IA-L3-1.43, ethyl 3-(4-(3-tert-butyl-5-(2,4-dioxotetrahydropyrimidin-1(2H)-yl)-2-methoxybenzamido)phenyl)-3-oxopropanoate], the pIC50 ([1]; IC50 1a) was under 6.00 and the pIC50 [2] was under 6.00.
`CCOC(=O)C1CCCN(Cc2cc(N3CCC(=O)NC3=O)cc(C(C)(C)C)c2O)C1` (centres unmarked) [IA-L5-1-1.3, 1-[3-tert-butyl-5-(2,4-dioxo-tetrahydro-pyrimidin-1-yl)-2-hydroxy-benzyl]-piperidine-3-carboxylic acid ethyl ester] was tested, and the pIC50 ([1]; IC50 1a) was under 6.00 and the pIC50 [2] was under 6.00.
`CC(C)(C)OC(=O)NC1CCN(Cc2cc(N3CCC(=O)NC3=O)cc(C(C)(C)C)c2O)CC1` [IA-L5-1-1.1, {1-[3-tert-butyl-5-(2,4-dioxo-tetrahydro-pyrimidin-1-yl)-2-hydroxy-benzyl]-piperidin-4-yl}-carbamic acid tert-butyl ester] gave a pIC50 ([1]; IC50 1a) of under 6.00 and a pIC50 [2] of under 6.00.
With `CC(C)(C)c1cc(N2CCC(=O)NC2=O)cc(CN2CCCC(CNS(C)(=O)=O)C2)c1O` (centres unmarked) [IA-L5-1-1.2, N-{1-[3-tert-butyl-5-(2,4-dioxo-tetrahydro-pyrimidin-1-yl)-2-hydroxy-benzyl]-piperidin-3-ylmethyl}-methanesulfonamide] the pIC50 ([1]; IC50 1a) was under 6.00 and the pIC50 [2] was under 6.00.
In the case of `CS(=O)(=O)Nc1ccc(NC(=O)c2cc(N3CCC(=O)NC3=O)ccc2O)cc1` [IA-L3-1.114, 5-(2,4-dioxotetrahydropyrimidin-1(2H)-yl)-2-hydroxy-N-(4-(methylsulfonamido)phenyl)benzamide], the pIC50 ([1]; IC50 1a) was under 6.00 and the pIC50 [2] was under 6.00.
`CC(C)(C)OC(=O)NC1CCN(Cc2cc(N3CCC(=O)NC3=O)cc(C(C)(C)C)c2O)C1` (centres unmarked) [IA-L5-1-1.12, {1-[3-tert-butyl-5-(2,4-dioxo-tetrahydro-pyrimidin-1-yl)-2-hydroxy-benzyl]-pyrrolidin-3-yl}-carbamic acid tert-butyl ester] gave a pIC50 ([1]; IC50 1a) of under 6.00 and a pIC50 [2] of under 6.00.
Work on `CN(Cc1cc(N2CCC(=O)NC2=O)cc(C(C)(C)C)c1O)C1CCCCC1` [IA-L9-1.2, 1-(3-tert-butyl-5-((cyclohexyl(methyl)amino)methyl)-4-hydroxyphenyl)dihydro pyrimidine-2,4(1H,3H)-dione 2,2,2-trifluoroacetate] yielded a pIC50 ([1]; IC50 1a) of under 6.00 and a pIC50 [2] of under 6.00.
`COc1c(C(=O)Nc2ccc(N(COC(=O)C(C)(C)C)S(C)(=O)=O)cc2)cc(N2CCC(=O)N(COC(=O)C(C)(C)C)C2=O)cc1C(C)(C)C` [IA-L3-1.116, (3-(3-tert-butyl-4-methoxy-5-(4-(N-(pivaloyloxymethyl)methylsulfonamido)phenylcarbamoyl)phenyl)-2,6-dioxotetrahydropyrimidin-1(2H)-yl)methyl pivalate] showed a pIC50 ([1]; IC50 1a) of under 6.00 and a pIC50 [2] of under 6.00.
Compound `COc1c(C(=O)Nc2ccc(N(S(C)(=O)=O)S(C)(=O)=O)cn2)cc(N2CCC(=O)NC2=O)cc1C(C)(C)C` [IA-L3-1.101, 3-tert-butyl-5-(2,4-dioxotetrahydropyrimidin-1(2H)-yl)-2-methoxy-N-(5-(N-(methylsulfonyl)methylsulfonamido)pyridin-2-yl)benzamide] has a pIC50 ([1]; IC50 1a) of under 6.00 and a pIC50 [2] of under 6.00.
Work on `CN(C(=O)c1cc(N2CCC(=O)NC2=O)cc(C(C)(C)C)c1O)c1ccccc1` [IA-L3-1.1, 3-tert-butyl-5-(2,4-dioxotetrahydropyrimidin-1(2H)-yl)-2-hydroxy-N-methyl-N-phenyl-benzamide] yielded a pIC50 ([1]; IC50 1a) of under 6.00 and a pIC50 [2] of under 6.00.
Work on `CC1CN(Cc2cc(N3CCC(=O)NC3=O)cc(C(C)(C)C)c2O)CC(C)O1` (centres unmarked) [IA-L5-1-1.13, 1-(3-tert-butyl-5-((2,6-dimethylmorpholino)methyl)-4-hydroxyphenyl)dihydro pyrimidine-2,4(1H,3H)-dione 2,2,2-trifluoroacetate] yielded a pIC50 ([1]; IC50 1a) of under 6.00 and a pIC50 [2] of under 6.00.
`COc1c(C(=O)Nc2ccc3c(c2)CS(=O)(=O)C3)cc(N2CCC(=O)NC2=O)cc1C(C)(C)C` [IA-L3-2.3, 3-tert-butyl-N-(2,2-dioxo-1,3-dihydrobenzo[c]thiophen-5-yl)-5-(2,4-dioxotetrahydropyrimidin-1(2H)-yl)-2-methoxybenzamide] gave a pIC50 ([1]; IC50 1a) of under 6.00 and a pIC50 [2] of under 6.00.
In the case of `COc1c(C(=O)Nc2ccc(NC(=O)OC(C)(C)C)cc2)cc(N2CCC(=O)NC2=O)cc1C(C)(C)C` [IA-L3-1.50, Tert-butyl 4-(3-tert-butyl-5-(2,4-dioxotetrahydropyrimidin-1(2H)-yl)-2-methoxybenzamido)-phenylcarbamate], the pIC50 ([1]; IC50 1a) was under 6.00 and the pIC50 [2] was under 6.00.
`COc1c(C(=O)Nc2ccc(C(C)=O)cc2)cc(N2CCC(=O)NC2=O)cc1C(C)(C)C` [IA-L3-1.42, N-(4-acetylphenyl)-3-tert-butyl-5-(2,4-dioxotetrahydropyrimidin-1(2H)-yl)-2-methoxy-benzamide] showed a pIC50 ([1]; IC50 1a) of under 6.00 and a pIC50 [2] of under 6.00.
`CCN(c1ccc(NC(=O)c2cc(N3CCC(=O)NC3=O)cc(C(C)(C)C)c2OC)cc1)S(C)(=O)=O` [IA-L3-1.63, 3-tert-butyl-5-(2,4-dioxotetrahydropyrimidin-1(2H)-yl)-N-(4-(N-ethylmethylsulfonamido)phenyl)-2-methoxybenzamide] showed a pIC50 ([1]; IC50 1a) of under 6.00 and a pIC50 [2] of under 6.00.
`CC(C)(C)c1cc(N2CCC(=O)NC2=O)cc(CN2CCOCC2)c1O` [IA-L5-1-1.14, 1-(3-tert-butyl-4-hydroxy-5-(morpholinomethyl)phenyl)dihydropyrimidine-2,4(1H,3H)-dione 2,2,2-trifluoroacetate] was tested, and the pIC50 ([1]; IC50 1a) was under 6.00 and the pIC50 [2] was under 6.00.
`COC(=O)C1CCN(Cc2cc(N3CCC(=O)NC3=O)cc(C(C)(C)C)c2O)CC1` [IA-L5-1-1.5, 1-[3-tert-butyl-5-(2,4-dioxo-tetrahydro-pyrimidin-1-yl)-2-hydroxy-benzyl]-piperidine-4-carboxylic acid methyl ester] was tested, and the pIC50 ([1]; IC50 1a) was under 6.00 and the pIC50 [2] was under 6.00.
`CC(C)(C)c1cc(N2CCC(=O)NC2=O)cc(NC(=O)c2ccc([N+](=O)[O-])cc2)c1O` [IA-L4-1.5, N-(3-tert-butyl-5-(2,4-dioxotetrahydropyrimidin-1(2H)-yl)-2-hydroxyphenyl)-4-nitro benzamide] showed a pIC50 ([1]; read-out: IC50 1a) of under 6.00 and a pIC50 ([2]; HCV polymerase 1b, read-out: IC50 1b) of under 6.00.
Work on `C=CCN(c1ccc(NC(=O)c2cc(N3CCC(=O)NC3=O)cc(C(C)(C)C)c2OC)cc1)S(C)(=O)=O` [IA-L3-1.108, N-(4-(N-allylmethylsulfonamido)phenyl)-3-tert-butyl-5-(2,4-dioxotetrahydropyrimidin-1(2H)-yl)-2-methoxybenzamide] yielded a pIC50 ([1]; IC50 1a) of under 6.00 and a pIC50 [2] of under 6.00.
For `COc1c(C(=O)Nc2ccccc2S(C)(=O)=O)cc(N2CCC(=O)NC2=O)cc1C(C)(C)C` [IA-L3-1.79, 3-tert-butyl-5-(2,4-dioxotetrahydropyrimidin-1(2H)-yl)-2-methoxy-N-(2-(methylsulfonyl)phenyl)benzamide], the pIC50 ([1]; IC50 1a) was under 6.00 and the pIC50 [2] was under 6.00.
Compound `CCOC(=O)N(c1ccc(NC(=O)c2cc(N3CCC(=O)NC3=O)cc(C(C)(C)C)c2OC)cc1)S(C)(=O)=O` [IA-L3-1.74, Ethyl 4-(3-tert-butyl-5-(2,4-dioxotetrahydropyrimidin-1(2H)-yl)-2-methoxybenzamido)-phenyl(methylsulfonyl)carbamate] has a pIC50 ([1]; IC50 1a) of under 6.00 and a pIC50 [2] of under 6.00.
Compound `CCN(CC)C(=O)C1CCCN(Cc2cc(N3CCC(=O)NC3=O)cc(C(C)(C)C)c2O)C1` (centres unmarked) [IA-L5-1-1.7, 1-[3-tert-butyl-5-(2,4-dioxo-tetrahydro-pyrimidin-1-yl)-2-hydroxy-benzyl]-piperidine-3-carboxylic acid diethylamide, trifluoroacetic acid salt] has a pIC50 ([1]; IC50 1a) of under 6.00 and a pIC50 [2] of under 6.00.

— patent US8415351B2 (priority 2007, dated 2013)
